Source: patent publication US10703756B2, “Pyrrolo[2,3-D]pyrimidinyl, pyrrolo[2,3-B]pyrazinyl, pyrrolo[2,3-B]pyridinyl acrylamides and epoxides thereof” (Pfizer Inc., priority 2015, dated 2020)

Columns and labels:
[1] = Stability of JAK3 Covalent Inhibitors in Human Whole Blood; format: in vitro ADME; settings: both sexes, 1 μM test compound, 37° C., 180 min incubation, read-out: Human blood stability t1/2
In short: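 Compound at 1 μM final incubated in duplicate at 37° C for 180 min in fresh K2-EDTA whole blood […]. Samples quenched in acetonitrile with internal standard; LC-MS/MS peak area ratios gave % parent remaining over time.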

[2] = system: IL-15 induced STAT5 phosphorylation in human whole blood lymphocytes; assay: HWB IL-15 Induced STAT5 Phosphorylation Assay; format: cell-based; settings: Lymphocyte, IL-15 final 50 ng/ml, read-out: HWB_IL15 pSTAT5 IC50
In short: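 Heparinised human whole blood preincubated with compound (0.2% DMSO final) 45 min at 37° C, then stimulated with human IL-15 (50 ng/ml final) for 15 min. After lyse/fix and Perm Buffer III permeabilisation, stained overnight at 4° C with AlexaFluor647 anti-phospho-STAT5; read by flow cytometry gated on total lymphocytes.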

JAK3 enzyme = target: T1, JAK3 enzyme (Homo sapiens, UniProt P52333); assay: JAK Caliper Enzyme Assay at 4 μM ATP; format: biochemical
T1 sequence (P52333 1-1124): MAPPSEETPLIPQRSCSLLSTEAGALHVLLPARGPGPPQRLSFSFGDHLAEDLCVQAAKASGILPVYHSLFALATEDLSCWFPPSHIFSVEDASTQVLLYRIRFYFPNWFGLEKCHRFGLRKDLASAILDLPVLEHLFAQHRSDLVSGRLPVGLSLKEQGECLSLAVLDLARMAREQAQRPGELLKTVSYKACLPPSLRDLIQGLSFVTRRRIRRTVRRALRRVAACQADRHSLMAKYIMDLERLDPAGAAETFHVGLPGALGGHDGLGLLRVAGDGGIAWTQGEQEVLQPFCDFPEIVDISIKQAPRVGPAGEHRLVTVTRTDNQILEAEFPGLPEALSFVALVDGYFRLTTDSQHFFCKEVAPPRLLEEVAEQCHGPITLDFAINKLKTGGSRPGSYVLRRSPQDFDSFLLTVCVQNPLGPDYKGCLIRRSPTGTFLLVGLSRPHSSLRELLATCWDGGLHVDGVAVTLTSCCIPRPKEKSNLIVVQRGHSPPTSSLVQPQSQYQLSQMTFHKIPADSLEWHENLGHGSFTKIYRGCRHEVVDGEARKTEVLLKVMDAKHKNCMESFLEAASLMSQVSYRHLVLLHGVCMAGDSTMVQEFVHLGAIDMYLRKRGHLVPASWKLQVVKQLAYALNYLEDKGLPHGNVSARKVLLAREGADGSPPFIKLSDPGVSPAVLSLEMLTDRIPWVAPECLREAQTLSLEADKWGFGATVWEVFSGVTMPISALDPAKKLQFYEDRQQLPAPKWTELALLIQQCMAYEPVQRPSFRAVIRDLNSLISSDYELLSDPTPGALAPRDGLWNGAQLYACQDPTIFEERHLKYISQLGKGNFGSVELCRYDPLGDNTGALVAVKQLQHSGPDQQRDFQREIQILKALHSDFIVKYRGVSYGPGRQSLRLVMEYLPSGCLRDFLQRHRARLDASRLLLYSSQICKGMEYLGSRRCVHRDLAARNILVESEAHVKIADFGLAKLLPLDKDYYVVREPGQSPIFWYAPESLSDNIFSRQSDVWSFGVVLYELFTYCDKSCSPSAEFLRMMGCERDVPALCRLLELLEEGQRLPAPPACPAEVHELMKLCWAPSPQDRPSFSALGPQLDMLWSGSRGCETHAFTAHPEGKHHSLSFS
In short: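 Test compounds were diluted in DMSO as an 11-point half-log series from a 600 μM top concentration (DMSO series, not final assay level). Enzyme amount and incubation time were set per enzyme prep to reach 20%-30% phosphorylation. Phosphorylated and unphosphorylated peptide were resolved by microfluidic separation.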

Row | SMILES | half-life at 1 μM [1] | IC50 [2] | IC50 (JAK3 enzyme)
1 | C=CC(=O)N1CCC(Nc2cnc3[nH]cc(C(=O)NCc4ccccc4F)c3n2)CC1 [Example 196, 2-[(1-acryloylpiperidin-4-yl)amino]-N-(2-fluorobenzyl)-5H-pyrrolo[2,3-b]pyrazine-7-carboxamide] | > 6 h | 362 nM | 0.479 nM
2 | C=CC(=O)N1CCC(Oc2cnc3[nH]cc(C(=O)N[C@@H]4CCC[C@@H]4F)c3n2)CC1 [Example 230, 2-[(1-acryloylpiperidin-4-yl)oxy]-N-[(1R,2S)-2-fluorocyclopentyl]-5H-pyrrolo[2,3-b]pyrazine-7-carboxamide] | 5.85 h | 1710 nM | 0.305 nM
3 | C=CC(=O)N1CC[C@@H](Nc2cnc3[nH]cc(C(=O)NCC)c3n2)[C@H](C)C1 (single isomer, unassigned) [Example 44] | 4.27 h | 1230 nM | 0.35 nM
4 | C=CC(=O)N1CCC(Nc2cnc3[nH]cc(C(=O)NCC4CC4)c3n2)CC1 [Example 172, 2-[(1-acryloylpiperidin-4-yl)amino]-N-(cyclopropylmethyl)-5H-pyrrolo[2,3-b]pyrazine-7-carboxamide] | 5.43 h | 322 nM | 0.448 nM
5 | C=CC(=O)N1CC[C@@H](Nc2cnc3[nH]cc(C(=O)NCC(C)(F)F)c3n2)[C@@H](OC)C1 [Example 321, 2-{[(3S,4R)-1-acryloyl-3-methoxypiperidin-4-yl]amino}-N-(2,2-difluoropropyl)-5H-pyrrolo[2,3-b]pyrazine-7-carboxamide] | > 6 h | 999 nM | 0.448 nM
6 | C=CC(=O)N1CCC(Oc2cnc3[nH]cc(C(=O)NC4CCCC4)c3n2)CC1 (racemic) [Example 204, Racemic-2-[(1-acryloylpiperidin-4-yl)oxy]-N-cyclopentyl-5H-pyrrolo[2,3-b]pyrazine-7-carboxamide] | > 6 h | 1390 nM | 0.272 nM
7 | C=CC(=O)N1C[C@@H](CC#N)C[C@@H](Nc2ncnc3[nH]ccc23)C1 (single isomer, unassigned) [Example 106] | 1.87 h | 287 nM | 0.125 nM
8 | C=CC(=O)N1CCC(Oc2cnc3[nH]cc(C(=O)N[C@H](C)CC)c3n2)CC1 [Example 227, 2-[(1-acryloylpiperidin-4-yl)oxy]-N-[(2R)-butan-2-yl]-5H-pyrrolo[2,3-b]pyrazine-7-carboxamide] | 4.5 h | 682 nM | 0.279 nM
